The source of these data is US11364211B2, “Methods for selecting phosphatase selective and non-selective phosphatase inhibitors” (MEDICAL RESEARCH COUNCIL, priority 2015, dated 2022).

The test system of one series is HeLa cells. The series can be described thus: Cytoprotection from tunicamycin ER stress (WST-8 cell viability). In kind it is cell-based, human. The settings on record: Tunicamycin 2.5 ug/ml, 0.2-5 μM compound. How it is done: Cells were plated in 24-well plates at a density of 15,000 (HeLa) or 12,000 cells/ml (MEFs) 24 hours prior to treatment. ER stress was elicited by addition of fresh media containing 2.5 μg/ml tunicamycin (Sigma-Aldrich). Compounds of Example 1 were dissolved in DMSO and added as indicated. DMSO was used as a mock treatment. Cell viability was assessed by measuring the reduction of WST-8 [2-(2-methoxy-4-nitrophenyl)-3-(4-nitrophenyl)-5-(2,4-disulfophenyl)-2H-tetrazolium] into formazan using Cell viability Counting Kit-8 (Dojindo) according to the supplier's recommendation, 48 hours after tunicamycin treatment.
Cells where stressed with Tunicamycin (2.5 ug/ml) in the presence of 0.2-5 μM of a compound of Example 1. Cell viability was measured 3 days after treatment.
Cytoprotection against ER stress can be measured by a suitable assay. In this instance, cytoprotection was measured in HeLa cells in which ER stress was elicited by the addition of media containing tunicamycin, a drug that blocks N-glycosylation, thereby preventing protein folding and inducing the unfolded protein response. Cell viability was then detected in the presence and absence of a compound of Example 1 after a set period of time, by measuring the reduction of WST-8 into formazan using the standard cell viability kit Cell Viability Counting Kit-8 from Dojindo. […]

The subject of a further series is eIF2α phosphorylation. The series can be described thus: eIF2α phosphorylation during stress-recovery after DTT wash out. In kind it is cell-based. The settings on record: 30 minute 1 mM DTT and wash out. How it is done:
The inventors reasoned that a PPP1R15B inhibitor should prolong eIF2α phosphorylation following stress. To reveal this activity, it was crucial to search for conditions where PPP1R15A is not expressed, to avoid confounding effects. The inventors took advantage of the fast kinetic and reversibility of stress induction by DTT (Bertolotti et al., Nat. Cell. Biol., 2, 326-332, 2000; Jousse et al., 2003) and monitored eIF2α phosphorylation in cells following a 30 minute treatment with 1 mM DTT and a wash out. […] Thus, careful monitoring of the kinetic of eIF2α dephosphorylation in the early phase of a stress-recovery paradigm such as the one described here can be used to identify other PPP1R15B inhibitors.

Series [1] relates to eIF2α phosphorylation in MEFs. The series can be described thus: eIF2α phosphorylation in r15a mut/mut or r15b mut/mut MEFs (immunoblot). Type of series: cell-based, mouse. How it is done: HeLa cells were maintained in Dulbecco's Modified Eagle's Media (DMEM) supplemented with penicillin, streptomycin, glutamine and 10% fetal bovine serum (FBS). Ppp1r15a −/− and Ppp1r15b −/− MEF cells were maintained in DMEM supplemented with penicillin, streptomycin, glutamine, 55 μM β-mercaptoethanol, 1X non-essential amino acids (Sigma) and 10% FBS.
Cells (90,000 cells/ml) were plated in a 24-well plate and treated as indicated. At the end of treatment cells were lysed in 150 μl Laemmli Buffer. Lysates were boiled at 95° C. for 5 minutes, sonicated and resolved on 4-12% Bolt Bis-Tris Plus Gels (Thermo Fisher Scientific). Proteins were transferred to the nitrocellulose membrane using the iBlot 2 system (Thermo Fisher Scientific) and analysed using the following antibodies: e-IF2α-P (44-728G, Thermo Fisher Scientific, 1:1000), e-IF2α (ab5369, Abcam, 1:1000), tubulin (T5168, Sigma-Aldrich, 1:4000), BiP (610978, BD Biosciences Pharmingen, 1:1000), ATF4 (sc-200, Santa Cruz Biotechnology, 1:500), Ppp1r15a (10449-1-AP, Proteintech, 1:1000) and Ppp1r15b (14634-1-AP, Proteintech, 1:1000). Proteins were visualized using ECL Prime (GE Healthcare).
In general terms: Immunoblotting shows a protein as a band on a membrane.

Series [2] in a line: Tissue distribution in mice after oral gavage. In kind it is in vivo, mouse. Here is the method:
Pharmacokinetics studies were performed by XenoGesis. TST3 was administrated orally in C57BL/6J males. Plasma samples were prepared by protein precipitation with methanol containing internal standards. Tissues were weighed and prepared by homogenisation (1:3 in phosphate buffered saline) and protein precipitated with methanol containing internal standard. Following the addition of methanol, plasma and tissue samples were placed at −20° C. for 1 hour (or overnight) to allow proteins to precipitate. The samples were then centrifuged at 2,500×g (3,400 rpm) for 20 minutes at 4° C. The supernatants were analysed by LC-MS/MS.

Series [3] concerns the target T1, R15A (Homo sapiens, UniProt O75807).
T1 construct: the cDNAs encoding amino acids 325-636 of PPP1R15A; MBP (N); His (C); made in house; host or cells: E. coli BL21-Gold
The series can be described thus: SPR of recombinant R15A binding to immobilized bio-GBZ. The following applies: isolated R15A fragment, compound immobilized on chip. How it is done:
(§1) B. SPR sensorgrams of R15A and R15B binding to bio-GBZ immobilized on the SPR sensor chip surface. R15A/B concentration=0.0244-12.5 μM.
(§2) Here we set out to develop a generalizable strategy to identify new selective phosphatase inhibitors. First, we expressed and purified R15A and R15 B (FIG. 12) and used surface plasmon resonance (SPR) to measure binding affinities of known R15A inhibitors to their targets. We tried to immobilized R15 on SPR chip but this method produced inconsistent results, probably because the natively unstructured proteins precipitate on the chip. We therefore used biotynilated guanabenz (GBZ) (7) that we immobilized on the chip and tested binding of the proteins on the immobilized compound (FIGS. 13A and 13B).
(§3) A Biacore T200 (GE Healthcare) system was used for all experiments and biotinylated GBZ (bio-GBZ) (Tsaylter 2011) or bio-PP1 was captured on a Sensor Chip SA (GE Healthcare). […]

Series [4] has as its system R15A. The series is described as above. The arrangement: species or system human. The following applies: immobilized biotinylated GBZ. How it is done: as §1, §2, §3

“Also recorded” adds a separate entry of the source.

T1 sequence (O75807 325-636, stated change not applied): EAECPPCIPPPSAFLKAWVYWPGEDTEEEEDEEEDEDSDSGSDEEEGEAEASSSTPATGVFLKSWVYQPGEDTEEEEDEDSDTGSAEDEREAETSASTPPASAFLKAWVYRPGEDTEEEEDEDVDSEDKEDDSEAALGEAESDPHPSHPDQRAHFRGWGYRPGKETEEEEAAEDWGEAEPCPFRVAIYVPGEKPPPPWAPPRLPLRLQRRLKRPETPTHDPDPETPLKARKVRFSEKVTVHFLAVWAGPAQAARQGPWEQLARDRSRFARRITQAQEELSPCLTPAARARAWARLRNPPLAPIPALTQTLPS

As to `[H]/N=C(\N)NN=Cc1cccc(Cl)c1Cl` [Example 1, (E)-2-(2,3-dichlorobenzylidene)hydrazine-1-carboximidamide], in the series with HeLa cells, the “protection of cells from tunicamycin stress (cell viability)” value was “protects cells from cytotoxic ER stress”. In addition, in the series with eIF2α phosphorylation, the “eIF2α phosphorylation following stress” value is listed as “prolongs eIF2α phosphorylation”. Moreover, in series [1] (r15a mut/mut MEFs), the “eIF2α phosphorylation upon inactivation of R15A” value is listed as “rendered persistent”. Further, the “effect on eIF2α phosphorylation in r15b knock out cells” value in series [1] (r15b mut/mut MEFs, 10 μM, listed as TST3) is given as “activity is abolished”. In series [2], the “tissue distribution (plasma, brain, spinal cord, pancreas, liver)” value was “good tissue distribution; also recorded: extensive tissue distribution”.

Regarding `N=C(N)N/N=C/c1c(Cl)cccc1Cl` [Guanabenz, reference compound], the Kd – broadly, the constant that tells how readily two partners part at equilibrium – at R15A [3] was determined as 11 µM. Also, the “affinity for recombinant R15A fragment relative to R15B” value in the series with R15A [4] was “ten times higher affinity”.
